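Tested at 5 concentrations; 48 h exposure; 96-well plates; endpoints linearly interpolated, else capped at highest concentration. GI50 = concentration required for 50% inhibition of growth. TGI: concentration producing complete growth inhibition.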
Tests used:
Experiment in all cases: inhibition of tumour cell growth, NCI panel, 48 h
NCI/ADR-RES ovarian = system: NCI/ADR-RES ovarian
SK-MEL-2 melanoma = system: SK-MEL-2 melanoma
SN12C renal = system: SN12C renal
EKVX NSCLC = system: EKVX NSCLC
UACC-62 melanoma = system: UACC-62 melanoma
SK-MEL-28 melanoma = system: SK-MEL-28 melanoma
SK-MEL-5 melanoma = system: SK-MEL-5 melanoma
NCI-H522 lung = system: NCI-H522 lung
SW-620 colon = system: SW-620 colon
MALME-3M melanoma = system: MALME-3M melanoma
SF-295 CNS = system: SF-295 CNS
IGROV1 ovarian = system: IGROV1 ovarian
LOX IMVI melanoma = system: LOX IMVI melanoma
OVCAR-8 ovarian = system: OVCAR-8 ovarian
OVCAR-3 ovarian = system: OVCAR-3 ovarian
MCF7 breast = system: MCF7 breast
HT29 colon = system: HT29 colon
CCRF-CEM leukemia = system: CCRF-CEM leukemia
NCI-H23 lung = system: NCI-H23 lung
K-562 leukemia = system: K-562 leukemia
HS 578T breast = system: HS 578T breast
RPMI-8226 leukemia = system: RPMI-8226 leukemia
KM12 colon = system: KM12 colon
CAKI-1 renal = system: CAKI-1 renal
HCT-15 colon = system: HCT-15 colon
SR leukemia = system: SR leukemia
SF-268 CNS = system: SF-268 CNS
MOLT-4 leukemia = system: MOLT-4 leukemia
HL-60(TB) leukemia = system: HL-60(TB) leukemia
PC-3 prostate = system: PC-3 prostate
UACC-257 melanoma = system: UACC-257 melanoma
HCC-2998 colon = system: HCC-2998 colon
SNB-19 CNS = system: SNB-19 CNS
NCI-H226 lung = system: NCI-H226 lung
OVCAR-5 ovarian = system: OVCAR-5 ovarian
T-47D breast = system: T-47D breast
A549 NSCLC = system: A549 NSCLC
UO-31 renal = system: UO-31 renal
MDA-MB-435 = system: MDA-MB-435
HOP-62 NSCLC = system: HOP-62 NSCLC
COLO 205 colon = system: COLO 205 colon
MDA-MB-231 breast = system: MDA-MB-231 breast
HCT-116 colon = system: HCT-116 colon
SK-OV-3 ovarian = system: SK-OV-3 ovarian
SF-539 CNS = system: SF-539 CNS
TK-10 renal = system: TK-10 renal
NCI-H460 lung = system: NCI-H460 lung
SNB-75 CNS = system: SNB-75 CNS
HOP-92 NSCLC = system: HOP-92 NSCLC
786-0 renal = system: 786-0 renal
U251 CNS = system: U251 CNS
BT-549 breast = system: BT-549 breast
M14 melanoma = system: M14 melanoma
DU-145 prostate = system: DU-145 prostate
RXF 393 renal = system: RXF 393 renal
ACHN renal = system: ACHN renal
A498 renal = system: A498 renal
OVCAR-4 ovarian = system: OVCAR-4 ovarian

In the case of O[N+]1=CC=CCC1=S.On1ccccc1=S.[Zn], the GI50 (NCI/ADR-RES ovarian) is reported as 0.699 µM, the TGI (NCI/ADR-RES ovarian) is reported as 2.39 µM and the GI50 (SK-MEL-2 melanoma) is reported as 1.6 µM. It also gave a TGI (SK-MEL-2 melanoma) of 3.92 µM, a GI50 (SN12C renal) of 1 µM and a TGI (SN12C renal) of 2.53 µM. It also gave a GI50 (EKVX NSCLC) of 1.36 µM, a TGI (EKVX NSCLC) of 3 µM and a GI50 (UACC-62 melanoma) of 0.755 µM. The TGI (UACC-62 melanoma) was 2.23 µM, the GI50 (SK-MEL-28 melanoma) was 0.53 µM and the TGI (SK-MEL-28 melanoma) was 1.21 µM. For the same compound, the GI50 (SK-MEL-5 melanoma) was 1.1 µM, the TGI (SK-MEL-5 melanoma) was 2.47 µM and the GI50 (NCI-H522 lung) was 0.373 µM. It also gave a TGI (NCI-H522 lung) of 0.985 µM, a GI50 (SW-620 colon) of 0.899 µM and a TGI (SW-620 colon) of 2.64 µM. The GI50 (MALME-3M melanoma) was 0.819 µM, the TGI (MALME-3M melanoma) was 2.71 µM and the GI50 (SF-295 CNS) was 0.924 µM. For the same compound, the TGI (SF-295 CNS) was 2.72 µM, the GI50 (IGROV1 ovarian) was 0.862 µM and the TGI (IGROV1 ovarian) was 2.72 µM. It also gave a GI50 (LOX IMVI melanoma) of 0.429 µM, a TGI (LOX IMVI melanoma) of 0.912 µM and a GI50 (OVCAR-8 ovarian) of 0.399 µM. It also gave a TGI (OVCAR-8 ovarian) of 1.83 µM, a GI50 (OVCAR-3 ovarian) of 0.579 µM and a TGI (OVCAR-3 ovarian) of 1.37 µM. It also gave a GI50 (MCF7 breast) of 0.532 µM, a TGI (MCF7 breast) of 2.1 µM and a GI50 (HT29 colon) of 0.3 µM. The TGI (HT29 colon) was 0.942 µM, the GI50 (CCRF-CEM leukemia) was 0.437 µM and the TGI (CCRF-CEM leukemia) was 2.75 µM. The GI50 (NCI-H23 lung) was 0.919 µM, the TGI (NCI-H23 lung) was 2.81 µM and the GI50 (K-562 leukemia) was 0.661 µM. It also gave a TGI (K-562 leukemia) of 6.98 µM, a GI50 (HS 578T breast) of 2.15 µM and a TGI (HS 578T breast) greater than 30.7 µM. The GI50 (RPMI-8226 leukemia) was 1.39 µM, the TGI (RPMI-8226 leukemia) was 4.05 µM and the GI50 (KM12 colon) was 1.28 µM. For the same compound, the TGI (KM12 colon) was 2.6 µM, the GI50 (CAKI-1 renal) was 1.53 µM and the TGI (CAKI-1 renal) was 3.13 µM. It also gave a GI50 (HCT-15 colon) of 1.03 µM, a TGI (HCT-15 colon) of 3.02 µM and a GI50 (SR leukemia) of 0.351 µM. For the same compound, the TGI (SR leukemia) was greater than 23 µM, the GI50 (SF-268 CNS) was 0.88 µM and the TGI (SF-268 CNS) was 2.51 µM. The GI50 (MOLT-4 leukemia) was 0.614 µM, the TGI (MOLT-4 leukemia) was 6.76 µM and the GI50 (HL-60(TB) leukemia) was 2.58 µM. The TGI (HL-60(TB) leukemia) was 6.5 µM, the GI50 (PC-3 prostate) was 0.834 µM and the TGI (PC-3 prostate) was 3.13 µM. The GI50 (UACC-257 melanoma) was 0.529 µM, the TGI (UACC-257 melanoma) was 1.29 µM and the GI50 (HCC-2998 colon) was 0.896 µM. The TGI (HCC-2998 colon) was 2.37 µM, the GI50 (SNB-19 CNS) was 1.24 µM and the TGI (SNB-19 CNS) was 2.8 µM. For the same compound, the GI50 (NCI-H226 lung) was 1.02 µM, the TGI (NCI-H226 lung) was 3.04 µM and the GI50 (OVCAR-5 ovarian) was 1.45 µM. The TGI (OVCAR-5 ovarian) was 3.04 µM, the GI50 (T-47D breast) was 1.43 µM and the TGI (T-47D breast) was 3.13 µM. It also gave a GI50 (A549 NSCLC) of 0.811 µM, a TGI (A549 NSCLC) of 2.33 µM and a GI50 (UO-31 renal) of 0.664 µM. The TGI (UO-31 renal) was 1.97 µM, the GI50 (MDA-MB-435) was 0.753 µM and the TGI (MDA-MB-435) was 2.27 µM. The GI50 (HOP-62 NSCLC) was 1.21 µM, the TGI (HOP-62 NSCLC) was 2.72 µM and the GI50 (COLO 205 colon) was 0.375 µM. It also gave a TGI (COLO 205 colon) of 0.951 µM, a GI50 (MDA-MB-231 breast) of 0.759 µM and a TGI (MDA-MB-231 breast) of 2.22 µM. It also gave a GI50 (HCT-116 colon) of 0.274 µM, a TGI (HCT-116 colon) of 0.69 µM and a GI50 (SK-OV-3 ovarian) of 1.51 µM. It also gave a TGI (SK-OV-3 ovarian) of 2.87 µM, a GI50 (SF-539 CNS) of 0.977 µM and a TGI (SF-539 CNS) of 2.56 µM. For the same compound, the GI50 (TK-10 renal) was 1.09 µM, the TGI (TK-10 renal) was 2.47 µM and the GI50 (NCI-H460 lung) was 0.935 µM. It also gave a TGI (NCI-H460 lung) of 2.87 µM, a GI50 (SNB-75 CNS) of 1.95 µM and a TGI (SNB-75 CNS) of 6.85 µM. The GI50 (HOP-92 NSCLC) was 1.47 µM, the TGI (HOP-92 NSCLC) was 3.24 µM and the GI50 (786-0 renal) was 0.931 µM. The TGI (786-0 renal) was 2.29 µM, the GI50 (U251 CNS) was 0.602 µM and the TGI (U251 CNS) was 1.52 µM. For the same compound, the GI50 (BT-549 breast) was 1.52 µM, the TGI (BT-549 breast) was 3.15 µM and the GI50 (M14 melanoma) was 0.46 µM. The TGI (M14 melanoma) was 1.31 µM, the GI50 (DU-145 prostate) was 0.732 µM and the TGI (DU-145 prostate) was 1.86 µM. It also gave a GI50 (RXF 393 renal) of 0.587 µM, a TGI (RXF 393 renal) of 1.36 µM and a GI50 (ACHN renal) of 0.967 µM. For the same compound, the TGI (ACHN renal) was 2.31 µM, the GI50 (A498 renal) was 1.51 µM and the TGI (A498 renal) was 3.06 µM. It also gave a GI50 (OVCAR-4 ovarian) of 0.53 µM and a TGI (OVCAR-4 ovarian) of 1.63 µM.

CNC(=O)N(C1=NCC(C)S1)c1ccc(C)c(C)c1 (centres undefined) was tested, and the TGI (NCI/ADR-RES ovarian) was greater than 20.4 µM, the TGI (SK-MEL-2 melanoma) was 15.5 µM and the TGI (SN12C renal) was greater than 87.2 µM. The TGI (EKVX NSCLC) was 70.4 µM, the TGI (UACC-62 melanoma) was greater than 100 µM and the TGI (SK-MEL-28 melanoma) was greater than 92.8 µM. The TGI (SK-MEL-5 melanoma) was 19.1 µM, the TGI (NCI-H522 lung) was 17.1 µM and the TGI (SW-620 colon) was greater than 100 µM. It also gave a TGI (MALME-3M melanoma) of 55.2 µM, a TGI (SF-295 CNS) greater than 73.6 µM and a TGI (IGROV1 ovarian) greater than 100 µM. For the same compound, the TGI (LOX IMVI melanoma) was greater than 48.5 µM, the TGI (OVCAR-8 ovarian) was 45.7 µM and the TGI (OVCAR-3 ovarian) was 8.4 µM. For the same compound, the TGI (MCF7 breast) was 26.6 µM, the TGI (HT29 colon) was 12.7 µM and the TGI (CCRF-CEM leukemia) was greater than 62.8 µM. It also gave a TGI (NCI-H23 lung) greater than 100 µM, a TGI (K-562 leukemia) greater than 20.1 µM and a TGI (HS 578T breast) greater than 100 µM. For the same compound, the TGI (RPMI-8226 leukemia) was 15.1 µM, the TGI (KM12 colon) was greater than 55.7 µM and the TGI (CAKI-1 renal) was 20.6 µM. The TGI (HCT-15 colon) was greater than 54 µM, the TGI (SR leukemia) was greater than 71.7 µM and the TGI (SF-268 CNS) was 40.6 µM. For the same compound, the TGI (MOLT-4 leukemia) was greater than 59.2 µM, the TGI (HL-60(TB) leukemia) was 4.1 µM and the TGI (PC-3 prostate) was greater than 55 µM. The TGI (UACC-257 melanoma) was greater than 78.1 µM, the TGI (HCC-2998 colon) was 24.1 µM and the TGI (SNB-19 CNS) was greater than 100 µM. For the same compound, the TGI (NCI-H226 lung) was greater than 100 µM, the TGI (OVCAR-5 ovarian) was greater than 100 µM and the TGI (T-47D breast) was greater than 100 µM. It also gave a TGI (A549 NSCLC) greater than 100 µM, a TGI (UO-31 renal) greater than 78.7 µM and a TGI (MDA-MB-435) of 3.49 µM. It also gave a TGI (HOP-62 NSCLC) greater than 100 µM, a TGI (COLO 205 colon) greater than 44.6 µM and a TGI (MDA-MB-231 breast) greater than 100 µM. It also gave a TGI (HCT-116 colon) greater than 76.8 µM, a TGI (SK-OV-3 ovarian) greater than 93 µM and a TGI (SF-539 CNS) greater than 25.6 µM. The TGI (TK-10 renal) was greater than 68.2 µM, the TGI (NCI-H460 lung) was 42.6 µM and the TGI (SNB-75 CNS) was greater than 24.7 µM. It also gave a TGI (HOP-92 NSCLC) greater than 29.5 µM, a TGI (786-0 renal) greater than 48.8 µM and a TGI (U251 CNS) greater than 36.8 µM. It also gave a TGI (BT-549 breast) greater than 100 µM, a TGI (M14 melanoma) greater than 42.3 µM and a TGI (DU-145 prostate) greater than 100 µM. The TGI (RXF 393 renal) was 8.31 µM, the TGI (ACHN renal) was greater than 76.5 µM and the TGI (A498 renal) was 17 µM. For the same compound, the TGI (OVCAR-4 ovarian) was greater than 100 µM.

Reference: PubChem BioAssay (NCI)
